Source: ChEMBL document CHEMBL3576846, “Privileged Structures Meet Human T-Cell Leukemia Virus-1 (HTLV-1): C2-Symmetric 3,4-Disubstituted Pyrrolidines as Nonpeptidic HTLV-1 Protease Inhibitors” (J Med Chem, 2015)

Assay: Inhibition of HTLV-1 protease using (RE(Edans)TKVLVVQPK(Dabsyl)R) as substrate by fluorescence assay
Set-up: species or system Human T-cell leukemia virus type I

Row | Ki [µM] | SMILES
1 | 2.4 | O=S(=O)(c1ccccc1Cl)N(Cc1ccccc1)[C@H]1CNC[C@@H]1N(Cc1ccccc1)S(=O)(=O)c1ccccc1Cl
2 | > 200 | O=S(=O)(c1ccccc1)N(Cc1ccc(I)cc1)[C@H]1CNC[C@@H]1N(Cc1ccc(I)cc1)S(=O)(=O)c1ccccc1
3 | 172 | C=CCN([C@H]1CNC[C@@H]1N(CC=C)S(=O)(=O)c1ccccc1)S(=O)(=O)c1ccccc1
4 | 2 | O=S(=O)(c1ccccc1)N(Cc1ccccc1)[C@H]1CNC[C@@H]1N(Cc1ccccc1)S(=O)(=O)c1ccccc1
5 | 7.9 | O=[N+]([O-])c1ccc(S(=O)(=O)N(Cc2ccccc2)[C@H]2CNC[C@@H]2N(Cc2ccccc2)S(=O)(=O)c2ccc([N+](=O)[O-])cc2)cc1
6 | 2.6 | Cc1ccccc1S(=O)(=O)N(Cc1ccccc1)[C@H]1CNC[C@@H]1N(Cc1ccccc1)S(=O)(=O)c1ccccc1C
7 | 0.015 | Nc1ccc(S(=O)(=O)N(Cc2ccccc2)[C@H]2CNC[C@@H]2N(Cc2ccccc2)S(=O)(=O)c2ccc(N)cc2)cc1
8 | 17.8 | C=C(C)CN([C@H]1CNC[C@@H]1N(CC(=C)C)S(=O)(=O)c1ccccc1)S(=O)(=O)c1ccccc1
9 | 11.6 | CC(C)=CCN([C@H]1CNC[C@@H]1N(CC=C(C)C)S(=O)(=O)c1ccccc1)S(=O)(=O)c1ccccc1
10 | > 250 | O=S(=O)(c1ccccc1)N(Cc1ccc(C(F)(F)F)cc1)[C@H]1CNC[C@@H]1N(Cc1ccc(C(F)(F)F)cc1)S(=O)(=O)c1ccccc1
